Reference: paper PMC5561212, “In Vitro Micropatterned Human Pluripotent Stem Cell Test (µP-hPST) for Morphometric-Based Teratogen Screening” (Scientific Reports, 2017)
Values after ≈ are worked out from the molar mass of the structure shown. “Also recorded” adds a separate entry of the source. Where two headings read alike, the source gives them in different places.

Key:
hPSC = tested on: hPSC; set-up: method as in PMID 24123775; conditions: cited from earlier work
[1] = tested on: adult human dermal fibroblasts (aHDF); assay: Cytotoxicity assay (MTS), general cytotoxicity; format: cell-based; conditions: aHDF cells, 3 days, 25% inhibitory concentration
Description: (§1) A set of 30 compounds of known teratogenicity was selected to establish and validate the µP-hPST (Table 1). The compounds include equal number of non-teratogens and teratogens, and differ in chemical property and therapeutic usage. Before tested in the µP-hPSC colonies, the cytotoxicity profile of each compound was acquired. Two cell lines, hPSC line H9 and adult human dermal fibroblast line aHDF, were tested to represent embryonic cytotoxicity and general cytotoxicity of the compound respectively (Supplementary Figs S1, S2). The IC25 values, which were the 25% inhibitory concentrations, were calculated as the highest non-cytotoxic concentrations of the compound (Table 2, Fig. 1).
(§2) Human embryonic cell line H9 (WiCell Research Institute, Inc) and adult human dermal fibroblast (aHDF, Lonza) were cultured as previously described. Briefly, H9 cells were cultured in tissue culture plates coated with Matrigel^TM (354277, BD Biosciences) in mTeSR^TM1 medium (05850, StemCell^TM Technologies). Dispase (07923, StemCell^TM Technologies) treatment and mechanical scraping were applied during normal subculture. The aHDF cells was cultured in DMEM medium (10569-010, Gibco), supplemented with 10% FBS (SV30160.03, Thermo Scientific Hyclone) and 1% Pen-Strep (09367-34, Nacalai Tesque). Cells were subcultured every 5–6 days using 0.25% Trypsion-EDTA (25200-114, Gibco) to detach the cells.
(§3) The adverse effect of test compounds on cell proliferation and viability was detected using CellTiter 96® AQueous One Solution Cell Proliferation Assay (MTS, G3580, Promega). 10,000 H9 cells or 500 aHDF cells were seeded in 96-well tissue culture plates. For H9 cells, Matrigel^TM was coated before seeding. For each compound, 8 concentrations from serial 5-fold dilutions were tested besides the vehicle controls. Cells were cultured for 3 days with medium half change every day before cell viability was measured. Each drug was tested in three independent runs and its IC25 values (inhibitory concentrations which can cause 25% of reduction in cell number) were acquired by logistic regression using OriginPro 9.

[2] = cited from earlier work
[3] = cited from earlier work; for In vivo teratogenicity: Table 1, known teratogenicity; for In vivo teratogenicity (in words): Supplementary Tables S2, S3
[4] = tested on: human embryonic cell line H9; assay: Cytotoxicity assay (MTS), embryonic cytotoxicity; format: cell-based; conditions: H9 cells, 3 days, 25% inhibitory concentration
Description: as §1, §2, §3

[5] = tested on: µP-hPSC colonies (H9) under mesoendoderm induction; assay: µP-hPST: mesoendoderm pattern disruption in µP-hPSC colonies and two-step teratogen classification; conditions: for Teratogenicity in µP-hPST / Teratogenicity in µP-hPST (in words): two-step classification rule; for Mesoendoderm pattern disruption seen in T fluorescent images: 3 days of compound exposure, in words
[6] = human plasma, ref U.S. FDA website, EMA website or published journals (Supplementary Table S1)

Row | SMILES | Teratogenicity in other in vitro assays (hPSC) | IC25aHDF [1] [µg/mL] | Cmax [2, 6] [ng/mL] | In vivo teratogenicity [3] | IC25H9 [4] [µg/mL] | Teratogenicity in µP-hPST [5] | In vivo teratogenicity (in words) [3] | Classification in the Targeted Biomarker Assay (in words) (hPSC) | Teratogenicity in µP-hPST (in words) [5] | Mesoendoderm pattern disruption seen in T fluorescent images [5] | Defects caused in newborns [3] | Anomalies known to be induced [3] | Cmax ([2]; compounds tested previously) [ng/mL]
1 | CC(=O)Nc1ccc(O)cc1 [Acetaminophen] | NON[6] | 40 (≈ 265 µM) | 24000 | NON | 171 (≈ 1130 µM) |  |  |  |  |  |  |  | 
2 | Nc1nc2c(ncn2COCCO)c(=O)[nH]1 [Acyclovir] |  | 285 (≈ 1270 µM) | 5650 |  | 267 (≈ 1190 µM) |  |  |  |  |  |  |  | 
3 | CC1(C)S[C@@H]2[C@H](NC(=O)[C@H](N)c3ccc(O)cc3)C(=O)N2[C@H]1C(=O)O [Amoxicillin] | NON[6] | >1000 | 14400 | NON | >1000 | NON | Non-teratogen |  |  |  |  |  | 
4 | O=C1O[C@H]([C@@H](O)CO)C(O)=C1O [Ascorbic acid] |  | 63 (≈ 358 µM) | 156000 |  | 105 (≈ 596 µM) | NON |  |  |  |  |  |  | 
5 | COc1ccccc1Oc1c(NS(=O)(=O)c2ccc(C(C)(C)C)cc2)nc(-c2ncccn2)nc1OCCO [Bosentan] | NON[6] | 19.9 (≈ 36.1 µM) | 8170 | TER | 43.8 (≈ 79.4 µM) | TER | Teratogen | misclassified | correctly classify |  |  |  | 
6 | CS(=O)(=O)OCCCCOS(C)(=O)=O [Busulfan] | TER[6] | 19.2 (≈ 78 µM) | 1220 | TER | 0.5 (≈ 2.03 µM) | TER | Teratogen |  |  | much smaller and concentrated mesoendoderm patterns were observed |  |  | 
7 | Cn1c(=O)c2c(ncn2C)n(C)c1=O [Caffeine] |  | 129 (≈ 664 µM) | 10000 |  | 85.4 (≈ 440 µM) |  |  |  |  |  |  |  | 
8 | NC(=O)N1c2ccccc2C=Cc2ccccc21 [Carbamazepine] | TER[6] | 28 (≈ 119 µM) | 11000 | TER | 21 (≈ 88.9 µM) | TER | Teratogen |  | detect the teratogenic effects | decrease both cell differentiation and migration | neural tube defects, cardiovascular and urinary tract anomalies, and cleft palate |  | 
9 | CN(C)CCOC(c1ccccc1)c1ccccc1 [Diphenhydramine] |  | 31.4 (≈ 123 µM) |  |  | 2.4 (≈ 9.4 µM) | NON |  |  |  |  |  |  | 
10 | O=C1NC(=O)C(c2ccccc2)(c2ccccc2)N1 [Diphenylhydantoin] | NON[6] | 140 (≈ 555 µM) | 20000 | TER | 56 (≈ 222 µM) | TER | Teratogen | misclassified | correctly classify; also recorded: detect the teratogenic effects | slow down or prevent mesoendoderm cell migration |  | orofacial, limb, cardiovascular and neurobehavioral anomalies | 
11 | CN(C)CCOC(C)(c1ccccc1)c1ccccn1 (stereo not drawn) [Doxylamine] |  | 45 (≈ 166 µM) | 120 |  | 87 (≈ 322 µM) | NON |  |  |  |  |  |  | 
12 | Nc1nc2ncc(CNc3ccc(C(=O)N[C@@H](CCC(=O)O)C(=O)O)cc3)nc2c(=O)[nH]1 [Folic acid] |  | 894 (≈ 2030 µM) | 270 |  | 888 (≈ 2010 µM) | NON |  |  |  |  |  |  | 
13 | COc1cc2ncnc(Nc3ccc(F)c(Cl)c3)c2cc1OCCCN1CCOCC1 [Gefitinib] |  | 1.66 (≈ 3.71 µM) | 930 |  | 4.6 (≈ 10.3 µM) | TER |  |  |  |  |  |  | 
14 | Cc1ccc(NC(=O)c2ccc(CN3CCN(C)CC3)cc2)cc1Nc1nccc(-c2cccnc2)n1 [Imatinib] |  | 2.7 (≈ 5.47 µM) | 1560 |  | 19.5 (≈ 39.5 µM) |  |  |  |  |  |  |  | 
15 | NNC(=O)c1ccncc1 [Isoniazid] | NON[6] | 488 (≈ 3560 µM) | 3090 | NON | 370 (≈ 2700 µM) | NON |  |  |  |  |  |  | 
16 | CCOC(=O)N1CCC(=C2c3ccc(Cl)cc3CCc3cccnc32)CC1 [Loratadine] | NON[6] | 3.2 (≈ 8.36 µM) |  | NON | 24 (≈ 62.7 µM) |  |  |  |  |  |  |  | 
17 | CC[C@H](C)C(=O)O[C@H]1C[C@@H](C)C=C2C=C[C@H](C)[C@H](CC[C@@H]3C[C@@H](O)CC(=O)O3)[C@H]21 [Lovastatin] | NON[6] | 0.68 (≈ 1.68 µM) | 10 | TER |  | TER | Teratogen | misclassified | correctly classify | promote cell migration |  |  | 
18 | Cn1cc[nH]c1=S [Methimazole] |  | >1000 |  | TER | 252 (≈ 2210 µM) | TER | Teratogen |  |  | promote mesoendoderm differentiation while decrease collective cell migration |  |  | 
19 | CCN(CC)CCNC(=O)c1cc(Cl)c(N)cc1OC [Metoclopramide] | NON[6] | 154 (≈ 514 µM) | 40 | NON | 162 (≈ 540 µM) | NON | Non-teratogen |  |  |  |  |  | 
20 | CC1(C)S[C@@H]2[C@H](NC(=O)Cc3ccccc3)C(=O)N2[C@H]1C(=O)O [Penicillin G] |  |  |  |  |  |  |  |  | Non-teratogen |  |  |  | 400000
21 | N[C@@H](CC(=O)N1CCn2c(nnc2C(F)(F)F)C1)Cc1cc(F)c(F)cc1F [Sitagliptin] | NON[6] | 77.1 (≈ 189 µM) | 390 | NON | 359 (≈ 881 µM) | NON |  |  |  |  |  |  | 
22 | Cc1ncc(C[n+]2csc(CCO)c2C)c(N)n1 [Thiamine] | NON[6] | >1000 | 110 | NON | >1000 | NON | Non-teratogen |  |  | slow down or prevent mesoendoderm cell migration |  |  | 
